Data set [1] concerns human mammary adenocarcinoma cells (MCF-7). The data set can be described thus: Cytotoxicity of elution fractions from DC Bead microspheres on MCF-7 cells (ATPLite). Type of data set: cell-based. Conditions: MCF-7, 72 h treatment. The method, then: (§1) The release of nemorubicin hydrochloride from DC Bead™ microspheres was evaluated in PBS and in human plasma. At the end of the loading time and at each elution point, loaded nemorubicin hydrochloride-DC Bead™ microspheres were washed by warm water and finally incubated in warm PBS or human plasma at 37° C.
At desiderate elution time supernatant was collected carefully by syringe, avoiding beads aspiration. Then solutions were filtered by 70 μm nylon filcon filter (BD Biosciences) to avoid carry-over contamination, collected in Eppendorf tubes and finally stored at −20° C. for further analysis.
Samples were split for: • evaluation of the cytotoxicity of nemorubicin hydrochloride and doxorubicin against tumor cells (as dose able to inhibit cell growth by 50%; IC50). • evaluation of the released amount of nemorubicin hydrochloride and doxorubicin by HPLC-MS/UV analysis (the method used is reported in Example 2). In Vitro Antitumor Activity
The cytotoxic effect of elution fractions was investigated on human mammary adenocarcinoma cells (MCF-7, ECACC source). Cells were grown in E-MEM/Glutamax medium (Invitrogen), 10% FBS (EuroClone), and 1% Non-Essential AminoAcids (Invitrogen) and maintained at 37° C. at 5% CO2. For cytotoxicity test, cells were plated at density of 5,000 cells/well in 96-well plates (Corning) and grown for 24 h before treatment. Cells were treated for 72 h by raise dilutions of elution fractions. At the end of treatment, cells were incubated with TS substrate (ATPLite™). Plates were read for chemiluminescence (480/540 nm) by Perkin Elmer Envision™ plate reader.
IC50 were calculated by LSW Data Analysis™ curve fitting. The IC50 value of nemorubicin hydrochloride and doxorubicin in the medium eluted from DC Bead™ microspheres was compared to that of standard nemorubicin hydrochloride or doxorubicin fresh solutions.
Background: ATP-based viability assays read luminescence as a measure of living cells.

Data set [2] can be described thus: Elution efficiency from HepaSphere microspheres (HPLC-MS/UV). Type of data set: physicochemical. Conditions: up to 168 h. The method, then: Nemorubicin hydrochloride (1 mg drug/ml HepaSphere™, 2.5 mg drug/ml HepaSphere™) and doxorubicin (1 mg drug/ml HepaSphere™, 2.5 mg drug/ml HepaSphere™, 25 mg drug/ml HepaSphere™) were mixed with HepaSphere™ microspheres (50-100 μm). After 20 minutes of incubation the elution efficiency of nemorubicin hydrochloride and doxorubicin was measured up to 168 h.
At desiderate elution time, supernatant was collected carefully by syringe, avoiding beads aspiration. Then solutions were collected in Eppendorf tubes and stored at −20° C. for further analysis.
The released amount of nemorubicin hydrochloride and doxorubicin was evaluated by HPLC-MS/UV analysis (the method used is reported in Example 2).

Data set [3] is described as follows: Size and appearance of drug-loaded DC Bead microspheres by image analysis at microscope. Type of data set: physicochemical. Particulars: doxorubicin 25 mg drug/ml DC Bead; over loading and elution in PBS. The method, then: Nemorubicin hydrochloride was diluted at the concentration range of from 0.1 to 2.0 mg drug/ml DC Bead™ that represent clinically applicable doses. In the following examples microspheres of 100-300 μm diameters (DC Bead™) were used. Similar results were obtained when microspheres of 300-500 μm diameters (DC Bead™) were used.
The size and spherical shape of microspheres were analyzed after loading with nemorubicin hydrochloride and during the release of the drug up to 16 days. As comparison DC Bead™ microspheres were loaded with doxorubicin at the clinically used dosage of 25 mg drug/ml DC Bead™.
Drug loading: DC Bead™ microspheres were conditioned in water for 10 min. Then the water was discarded and nemorubicin hydrochloride or doxorubicin was added.
Drug release: DC™ microspheres with or without drug were incubated in Phosphate Buffer Saline (PBS) or human plasma from healthy donors up to 16 days. The size and spherical shape of DC Bead™ microspheres were measured at different time points.
Size and appearance of nemorubicin hydrochloride-DC Bead™ microspheres during drug-loading and drug-elution were determined by a Leica DM IRB (Leica) microscope equipped by Evolution MP Color CCD Camera (Media Cybernatics). The analysis of size was performed by Image Pro Plus™ (Media Cybernatics). […] At least four field-images for samples were analyzed to support the statistical analysis.

A short description of data set [4]: Release of drug from DC Bead microspheres in human plasma. Conditions: 37° C. Type of data set: physicochemical. The method, then: The measurements of nemorubicin hydrochloride in the elution medium were carried out with HPLC-MS/UV analysis performed by Finnigan MAT/LCQ Deca XP ion trap MS equipped with ESI ion source, directly connected to a Surveyor HPLC system (Thermo Electron Corporation). HPLC-MS/UV separations were set up on Phenomenex Gemini Phenyl, 3 μm, 50×4.6 mm by Acetate Buffer:Acetonitrile 1:9. UV detection was done at 480 nm and for ESI-MS analysis a heated capillary temperature at 275° C. and spray voltage at 4 KV was applied.
as §1
At desiderate elution time supernatant was collected carefully by syringe, avoiding beads aspiration. Then solutions were filtered by 70 μm nylon filcon filter (BD Biosciences) to avoid carry-over contamination, collected in Eppendorf tubes and finally stored at −20° C. for further analysis. […]

As usually defined, the IC50 is the concentration that inhibits the measured activity by half. High values mean a need for much substance, low ones inhibition by little substance.

For the molecule `COc1cccc2c1C(=O)c1c(O)c3c(c(O)c1C2=O)C[C@@](O)(C(=O)CO)C[C@@H]3O[C@H]1C[C@H](N)[C@H](O)[C@H](C)O1` [Doxorubicin, reference compound], the half-inhibitory concentration (IC50) in data set [1] (MCF7, 72 h, Standard (fresh drug solution)) was determined as 250 nM; in data set [1] (MCF7, 72 h, fraction eluted at 72 h) it was 140 nM; in data set [1] (MCF7, fraction eluted at 24 h), 250 nM; in data set [1] (MCF7, fraction eluted at 48 h), 180 nM; in data set [1] (MCF7, fraction eluted at 96 h) it was 200 nM; in data set [1] (MCF7, fraction eluted at 120 h) it was 450 nM. In addition, the IC50 in data set [1] (MCF7, fraction eluted at 144 h) is 1500 nM; in data set [1] (MCF7, fraction eluted from DC Bead microspheres at 1 h) it was 300 nM. Moreover, the “% total released drug” value in data set [2] (Dose 1 mg drug/ml HepaSphere (50-100 μm)) is on record as 7%; in data set [2] (Dose 2.5 mg drug/ml HepaSphere (50-100 μm)) it was 4%; in data set [2] (Dose 25 mg drug/ml HepaSphere (50-100 μm)), 35%. For the same molecule, the “size range of loaded microspheres (diameter)” value in data set [3] is 85-125 μm. Further, the total drug released in data set [4] is 2.5%.

For the origin of these results see patent US8940334B2, “Pharmaceutical composition of an anthracycline” (priority 2007, dated 2015).
